Publication PMC10529594, “Strasseriolides display in vitro and in vivo activity against trypanosomal parasites and cause morphological and size defects in Trypanosoma cruzi” (PLOS Neglected Tropical Diseases, 2023)

Key:
[1] = test system: T. b. brucei 427 bloodstream forms; assay: Resazurin-based T. b. brucei assay; type: cell-based; conditions: Trypanosoma brucei, 72 h, read-out: EC50 T. brucei
Protocol: Parasites strains adapted to culture in vitro were used. T. b. brucei Lister 427 bloodstream form parasites (information about the identity and genealogy of this strain is available at The Rockefeller University website) were grown in HMI-9 medium supplemented with 10% heat-inactivated fetal bovine serum (iFBS).
Cells in logarithmic phase of growth were added using a Multidrop dispenser (45 μL, 500 bloodstream T. b. brucei parasites per well) to 384-well Corning assay plates already containing 5 μL of each compound and controls, and incubated for 72 hours at 37°C. 10 μL of resazurin were added per well, and the plates were further incubated for 6 hours at 37°C. The final fluorescence was determined at 550–590 nm. Pentamidine at 40 nM and 0.0067% DMSO were used as […] growth controls, respectively.

[2] = test system: T. cruzi Tulahuen C4 intracellular amastigotes; assay: β-D-galactosidase transgenic T. cruzi assay (intracellular amastigotes in L6 cells, CPRG); type: cell-based; conditions: Trypanosoma cruzi
Protocol: (§1) The Trypanosoma cruzi Tulahuen strain used is a genetically modified strain that expresses the Escherichia coli β-galactosidase gene, lacZ [31]. It was kindly supplied by Marcel Kaiser (Swiss Tropical and Public Health Institute). The T. cruzi Tulahuen C4 strain was cultured in RPMI-1640 supplemented with 10% inactivated FBS (iFBS), 1.7 mM L-glutamine, 100 U/mL penicillin, and […] at 37°C and 5% CO2. L6 rat skeletal muscle cells were purchased from ATCC (reference CRL-1458) and used as host cells for infection with transgenic T. cruzi trypomastigotes. Epimastigotes were obtained by differentiation in LIT medium with 10% iFBS at 28°C from trypomastigote forms.
A Thermo Scientific Multidrop Combi dispenser was used to dispense 55 μL of T. cruzi infected L6 cells (2 ×10^3 cells per well) into 384-well Corning assay plates already containing 5 μL of each compound at concentrations ranging from 0.0015 to 50 μM and controls. The plates were incubated at 37°C for 96 hours upon which 15 μL of lysis buffer (0.5 mM CPRG, 0.5% NP40) were added to each well and further incubated for 4 hours in the dark. Absorbance at 585 nm was measured in a Perkin Elmer Envision plate reader.

[3] = test system: T. cruzi Tulahuen C4 epimastigotes; assay: T. cruzi epimastigotes growth inhibition assay (resazurin); type: cell-based, Trypanosoma cruzi; conditions: 72 h
Protocol: as §1
A resazurin-based assay was set up in 96-well microplates containing 10 μL of test compound at concentrations ranging from 0.39 to 200 μM and log phase parasites seeded at 2 × 10^5 cells per well in a final volume of 100 μL. Maximum DMSO percentage in the well was 0.2%. Positive and negative growth controls were included. Following 72 hour incubation at 28°C with orbital shaking, 10 μL of resazurin solution were added to each well and the plates were returned to the incubator for 4 hours. Resazurin reduction was correlated to cell viability by fluorescence measurement with excitation and emission wavelength bands centered at 550 and 590 nm, respectively, in a Tecan Infinite 200 microplate reader.

[4] = test system: T. cruzi Tulahuen C4 trypomastigotes; assay: T. cruzi trypomastigote viability assay (resazurin fluorescence); type: cell-based, Trypanosoma cruzi; conditions: Tulahuen C4, 72 hours at 37°C
Protocol: Tulahuen T. cruzi trypomastigotes were recovered 6 days post infection from the supernatant of harvested infected L6 cells cultures after 3 hours at 37°C. 90 μL of parasite culture at a density of 5 × 10^6 cells in RPMI 1640 media were dispensed into 96 Nunc flat bottom assay plates containing 10 μL of each compound.
In the fluorescence assay, plates were incubated for 24 and 48 hours after which 10 μL of the resazurin solution were added to each well. Plates were further incubated for 24 hours and fluorescence was measured at 550/590 nm using a Tecan Infinite 200 microplate reader. […] Final maximal DMSO percentage in the well was 0.1% and compound concentrations ranged from 0.2 to 100 μM.

[5] = test system: L6 rat myoblast cells; assay: Cytotoxicity evaluation in L6 cells (resazurin); type: cell-based; conditions: Rattus norvegicus, Myoblast; 72 h, resazurin; read-out: EC50 L6
Protocol: One hundred microliters of supplemented RPMI 1640 medium containing the compounds and controls were added to L6 rat myoblast cells previously seeded (4,000 cells per well) in a 96-well microplate. After 72 hours at 37°C the viable cell number was determined by resazurin reduction. 20 μL of resazurin at 0.11 mg/mL in PBS 1X were added to each well and incubated in the dark for 2 hours at 37°C. Cell viability was estimated by measuring the final fluorescence at 570–590 nm in a Tecan Infinite F200 plate reader.

[6] = test system: L. donovani MHOM/ET/67/HU3 transgenic intracellular amastigotes; assay: L. donovani intracellular amastigote assay (luciferase, THP-1 macrophages); type: cell-based; conditions: Leishmania donovani, THP-1, 72 h, read-out: EC50 L. donovani
Protocol: Leishmania donovani MHOM/ET/67/HU3 cells with the luciferase gene integrated into the parasite genome was obtained as described. Parasites were grown at 28°C in RPMI 1640-modified medium supplemented with 20% heat-inactivated fetal bovine serum (iFBS, Invitrogen) with […] of hygromycin B.
THP-1 cells were differentiated into macrophages with 20 ng/mL of PMA in a 96-well plate at 3 × 10^4 cells per well for 48 hours followed by 24 hours of culture in fresh medium. Cells were then infected with transgenic stationary L. donovani MHOM/ET/67/HU3 promastigotes expressing the luciferase gene at a multiplicity of infection (MOI) of 10. A volume of 100 μL of culture media containing the test compounds was added to each well and the plates were incubated at 37°C for 72 hours. Luminescence was measured using the Promega kit luciferase assay system.

[7] = test system: human macrophage THP-1 cells; assay: Cytotoxicity in THP-1 macrophages (MTT); type: cell-based
Protocol: Cellular toxicity of compounds in the human macrophage host TPH-1 cell line was determined using the colorimetric MTT-based assay as previously described.
THP-1 cells were seeded at 3 × 10^4 cells/well in 96-well plates and were differentiated to macrophages with 20 ng/ml of PMA treatment for 48 h followed by 24 h incubation in fresh medium. Strasseriolides were added at increasing concentrations up to 50 μM and cells were further incubated at 37°C for 72 h. 10 μL of MTT (5 mg/mL in PBS) were added to each well, and plates were incubated for an additional period of 8 h at 37°C. Formazan crystals were dissolved by adding 50 μL of 20% SDS and absorbance was read at 595 nm using a microplate reader.

Q: Which results are given for `C/C1=C\[C@H](C)[C@@H](O)C[C@@H](O)/C(C)=C/[C@H](C)C[C@@H](C)CC[C@@H]([C@@H](C)C(=O)O)OC(=O)[C@@H](C)C1` [Strasseriolide D, strasseriolide D]?
A: EC50 [1]: > 100 µM; inhibition at 0.00152588 µM ([2]; TULAHUEN, L6, T. cruzi amastigotes, 96-hour treatment, 0.00152588 µM, read-out: Growth inhibition (%) Average): 7.88%; inhibition at 0.00305176 µM ([2]; TULAHUEN, L6, T. cruzi amastigotes, 96-hour treatment, 0.00305176 µM, read-out: Growth inhibition (%) Average): 6.33%; inhibition at 0.00610352 µM ([2]; TULAHUEN, L6, T. cruzi amastigotes, 96-hour treatment, 0.00610352 µM, read-out: Growth inhibition (%) Average): 2.28%; inhibition at 0.012207 µM ([2]; TULAHUEN, L6, T. cruzi amastigotes, 96-hour treatment, 0.012207 µM, read-out: Growth inhibition (%) Average): 4.26%; inhibition at 0.0244141 µM ([2]; TULAHUEN, L6, T. cruzi amastigotes, 96-hour treatment, 0.0244141 µM, read-out: Growth inhibition (%) Average): 4.84%; inhibition at 0.0488281 µM ([2]; TULAHUEN, L6, T. cruzi amastigotes, 96-hour treatment, 0.0488281 µM, read-out: Growth inhibition (%) Average): 2.75%; inhibition at 0.0976562 µM ([2]; TULAHUEN, L6, T. cruzi amastigotes, 96-hour treatment, 0.0976562 µM, read-out: Growth inhibition (%) Average): 2.22%; inhibition at 0.195312 µM ([2]; TULAHUEN, L6, T. cruzi amastigotes, 96-hour treatment, 0.195312 µM, read-out: Growth inhibition (%) Average): 7.23%; inhibition at 0.390625 µM ([2]; TULAHUEN, L6, T. cruzi amastigotes, 96-hour treatment, 0.390625 µM, read-out: Growth inhibition (%) Average): 4.8%; inhibition at 0.78125 µM ([2]; TULAHUEN, L6, T. cruzi amastigotes, 96-hour treatment, 0.78125 µM, read-out: Growth inhibition (%) Average): 4.2%; inhibition at 1.5625 µM ([2]; TULAHUEN, L6, T. cruzi amastigotes, 96-hour treatment, 1.5625 µM, read-out: Growth inhibition (%) Average): 8.54%; inhibition at 3.125 µM ([2]; TULAHUEN, L6, T. cruzi amastigotes, 96-hour treatment, 3.125 µM, read-out: Growth inhibition (%) Average): 21.2%; inhibition at 6.25 µM ([2]; TULAHUEN, L6, T. cruzi amastigotes, 96-hour treatment, 6.25 µM, read-out: Growth inhibition (%) Average): 66.1%; inhibition at 12.5 µM ([2]; TULAHUEN, L6, T. cruzi amastigotes, 96-hour treatment, 12.5 µM, read-out: Growth inhibition (%) Average): 100%; inhibition at 25 µM ([2]; TULAHUEN, L6, T. cruzi amastigotes, 96-hour treatment, 25 µM, read-out: Growth inhibition (%) Average): 112%; inhibition at 50 µM ([2]; TULAHUEN, L6, T. cruzi amastigotes, 96-hour treatment, 50 µM, read-out: Growth inhibition (%) Average): 113%; EC50 ([2]; Tulahuen C4 in L6 cells, 96 h, CPRG): 5.61 µM; EC30, epimastigotes ([3]; from dose-response curve): 36 µM; EC70, epimastigotes ([3]; from dose-response curve): 68 µM; EC50 ([3]; Trypanosoma cruzi, TULAHUEN, Tulahuen C4, 72 h, resazurin): 42.4 µM; EC50 ([4]; Trypanosoma cruzi, TULAHUEN, 72 h): 3.4 µM; EC50 [4]: 3.38 µM; EC50 [5]: > 100 µM; EC50 [6]: 13.6 µM; Selectivity index intracellular L. donovani versus THP-1 cells [7]: > 37; EC50 ([7]; Homo sapiens, THP-1, 72 h, MTT, read-out: EC50 THP-1): > 500 µM
